The target in this assay is T1, JAK2 (JH1domain-catalytic, Y1007F,Y1008F) kinase (Homo sapiens, UniProt O60674, Y1007F/Y1008F).
T1 construct: JAK2 (JH1domain-catalytic, Y1007F,Y1008F) kinase was expressed as N-terminal fusion; made in house; host or cells: transiently transfected HEK293 cells
T1 sequence (O60674 849-1124 Y1007F/Y1008F limits assumed): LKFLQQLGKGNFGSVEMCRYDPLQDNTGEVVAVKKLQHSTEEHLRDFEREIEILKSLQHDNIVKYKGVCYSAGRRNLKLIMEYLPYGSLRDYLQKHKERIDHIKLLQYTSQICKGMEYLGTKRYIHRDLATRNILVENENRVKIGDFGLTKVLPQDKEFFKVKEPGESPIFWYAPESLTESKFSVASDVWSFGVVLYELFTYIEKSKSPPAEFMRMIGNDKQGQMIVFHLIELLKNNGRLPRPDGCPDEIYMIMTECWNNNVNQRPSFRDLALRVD
In words: JAK2 JH1 Domain Binding Assay. Conditions: qPCR readout. On the technique in general: In qPCR the cycle at which signal appears reflects the starting amount.
In the case of `Cn1c(=O)c(Nc2nc3ncc(Oc4cnn5ccncc45)c(Cl)c3n2C)cn(C2CC2)c1=O` [Example I-165, 5-((7-chloro-1-methyl-6-(pyrazolo[1,5-a]pyrazin-3-yloxy)-1H-imidazo[4,5-b]pyridin-2-yl)amino)-1-cyclopropyl-3-methylpyrimidine-2,4(1H,3H)-dione], the Kd (usually the equilibrium constant for the complex coming apart) fell in the range of 1000 to 5000 nM.

As to `Cn1cc(C(F)(F)F)cc(Nc2nc3ncc(Oc4cnn5ccc(N6CCOCC6)cc45)c(Cl)c3n2C)c1=O` [Example I-166, 3-((7-chloro-1-methyl-6-((5-morpholinopyrazolo[1,5-a]pyridin-3-yl)oxy)-1H-imidazo[4,5-b]pyridin-2-yl)amino)-1-methyl-5-(trifluoromethyl)pyridin-2(1H)-one], the Kd was < 10 nM.

`Cn1c(Nc2cc(C(F)(F)F)cn([C@H]3C[C@@H](O)C3)c2=O)nc2ncc(Oc3cnn4ccccc34)c(C#N)c21` [Example I-167, cis-2-((1-(3-hydroxycyclobutyl)-2-oxo-5-(trifluoromethyl)-1,2-dihydropyridin-3-yl)amino)-1-methyl-6-(pyrazolo[1,5-a]pyridin-3-yloxy)-1H-imidazo[4,5-b]pyridine-7-carbonitrile]: the Kd was < 10 nM.

Consider `Cn1c(Nc2cc(C(C)(C)C)n(C3COC3)n2)nc2ncc(Oc3cnn4ccncc34)c(C#N)c21` [Example I-168, 2-((5-(tert-butyl)-1-(oxetan-3-yl)-1H-pyrazol-3-yl)amino)-1-methyl-6-(pyrazolo[1,5-a]pyrazin-3-yloxy)-1H-imidazo[4,5-b]pyridine-7-carbonitrile], for which the Kd is 10 to 50 nM.

For `CN1CC[C@H](n2nc(Nc3nc4ncc(Oc5cnn6cc(F)ccc56)c(Cl)c4n3C)cc2C(C)(C)C)C1` [Example I-169, (S)—N-(5-(tert-butyl)-1-(1-methylpyrrolidin-3-yl)-1H-pyrazol-3-yl)-7-chloro-6-((6-fluoropyrazolo[1,5-a]pyridin-3-yl)oxy)-1-methyl-1H-imidazo[4,5-b]pyridin-2-amine], the Kd was < 10 nM.

As for `CN1CC[C@@H](n2nc(Nc3nc4ncc(Oc5cnn6cc(F)ccc56)c(Cl)c4n3C)cc2C(C)(C)C)C1` [Example I-170], the Kd lay within 10 to 50 nM.

For the molecule `CNc1nccn2ncc(Oc3cnc4nc(Nc5cc(C(F)(F)F)cn(-c6cnn(C)c6)c5=O)n(C)c4c3Cl)c12` [Example I-171, 3-((7-chloro-1-methyl-6-((4-(methylamino)pyrazolo[1,5-a]pyrazin-3-yl)oxy)-1H-imidazo[4,5-b]pyridin-2-yl)amino)-1-(1-methyl-1H-pyrazol-4-yl)-5-(trifluoromethyl)pyridin-2(1H)-one], the Kd was < 10 nM.

For the molecule `CN1CCN(c2cc(Nc3nc4ncc(Oc5cnn6ccncc56)c(Cl)c4n3C)cc(C(F)(F)F)c2)CC1` [Example I-172, 7-chloro-1-methyl-N-(3-(4-methylpiperazin-1-yl)-5-(trifluoromethyl)phenyl)-6-(pyrazolo[1,5-a]pyrazin-3-yloxy)-1H-imidazo[4,5-b]pyridin-2-amine], the Kd is < 10 nM.

Regarding `Cn1c(Nc2ccc(CN3CCC(F)(F)CC3)c(C(F)(F)F)c2)nc2ncc(Oc3cnn4ccncc34)c(Cl)c21` [Example I-173, 7-chloro-N-(4-((4,4-difluoropiperidin-1-yl)methyl)-3-(trifluoromethyl)phenyl)-1-methyl-6-(pyrazolo[1,5-a]pyrazin-3-yloxy)-1H-imidazo[4,5-b]pyridin-2-amine], the Kd fell in the range of 10 to 50 nM.

Take `Cn1c(Nc2ccc(CN3CCCC(F)(F)C3)c(C(F)(F)F)c2)nc2ncc(Oc3cnn4ccncc34)c(Cl)c21` [Example I-174, 7-chloro-N-(4-((3,3-difluoropiperidin-1-yl)methyl)-3-(trifluoromethyl)phenyl)-1-methyl-6-(pyrazolo[1,5-a]pyrazin-3-yloxy)-1H-imidazo[4,5-b]pyridin-2-amine]: the Kd lay within 10 to 50 nM.

Molecule `CO[C@H]1CCN(Cc2ccc(Nc3nc4ncc(Oc5cnn6ccncc56)c(Cl)c4n3C)cc2C(F)(F)F)C1` [Example I-175, (S)-7-chloro-N-(4-((3-methoxypyrrolidin-1-yl)methyl)-3-(trifluoromethyl)phenyl)-1-methyl-6-(pyrazolo[1,5-a]pyrazin-3-yloxy)-1H-imidazo[4,5-b]pyridin-2-amine] showed a Kd of 10 to 50 nM.

As to `CO[C@@H]1CCN(Cc2ccc(Nc3nc4ncc(Oc5cnn6ccncc56)c(Cl)c4n3C)cc2C(F)(F)F)C1` [Example I-176, (R)-7-chloro-N-(4-((3-methoxypyrrolidin-1-yl)methyl)-3-(trifluoromethyl)phenyl)-1-methyl-6-(pyrazolo[1,5-a]pyrazin-3-yloxy)-1H-imidazo[4,5-b]pyridin-2-amine], the Kd is < 10 nM.

For the molecule `Cn1cc(C(F)(F)F)cc(Nc2nc3ncc(Oc4cnn5ccncc45)c(Cl)c3n2C)c1=O` [Example I-177, 3-((7-chloro-1-methyl-6-(pyrazolo[1,5-a]pyrazin-3-yloxy)-1H-imidazo[4,5-b]pyridin-2-yl)amino)-1-methyl-5-(trifluoromethyl)pyridin-2(1H)-one], the Kd was < 10 nM.

In the case of `CNc1nccn2ncc(Oc3cnc4nc(Nc5cc(C(F)(F)F)cn(C6CC6)c5=O)n(C)c4c3Cl)c12` [Example I-178, 3-((7-chloro-1-methyl-6-((4-(methylamino)pyrazolo[1,5-a]pyrazin-3-yl)oxy)-1H-imidazo[4,5-b]pyridin-2-yl)amino)-1-cyclopropyl-5-(trifluoromethyl)pyridin-2(1H)-one], the Kd is < 10 nM.

Take `CNc1nccn2ncc(Oc3cnc4nc(Nc5cc(C(F)(F)F)cn(-c6cccnc6)c5=O)n(C)c4c3Cl)c12` [Example I-179, 3-((7-chloro-1-methyl-6-((4-(methylamino)pyrazolo[1,5-a]pyrazin-3-yl)oxy)-1H-imidazo[4,5-b]pyridin-2-yl)amino)-5-(trifluoromethyl)-2H-[1,3′-bipyridin]-2-one]: the Kd is < 10 nM.

Consider `Cc1cn(-c2cc(Nc3nc4ncc(Oc5cnn6ccncc56)c(Cl)c4n3C)cc(C(F)(F)F)c2)cn1` [Example I-180, 7-chloro-1-methyl-N-(3-(4-methyl-1H-imidazol-1-yl)-5-(trifluoromethyl)phenyl)-6-(pyrazolo[1,5-a]pyrazin-3-yloxy)-1H-imidazo[4,5-b]pyridin-2-amine], for which the Kd was < 10 nM.

`CO[C@H]1CCN(Cc2cc(Nc3nc4ncc(Oc5cnn6ccncc56)c(Cl)c4n3C)cc(C(F)(F)F)c2)C1` [Example I-181, (S)-7-chloro-N-(3-((3-methoxypyrrolidin-1-yl)methyl)-5-(trifluoromethyl)phenyl)-1-methyl-6-(pyrazolo[1,5-a]pyrazin-3-yloxy)-1H-imidazo[4,5-b]pyridin-2-amine]: the Kd was < 10 nM.

For the molecule `CO[C@@H]1CCN(Cc2cc(Nc3nc4ncc(Oc5cnn6ccncc56)c(Cl)c4n3C)cc(C(F)(F)F)c2)C1` [Example I-182, (R)-7-chloro-N-(3-((3-methoxypyrrolidin-1-yl)methyl)-5-(trifluoromethyl)phenyl)-1-methyl-6-(pyrazolo[1,5-a]pyrazin-3-yloxy)-1H-imidazo[4,5-b]pyridin-2-amine], the Kd was < 10 nM.

Take `Cn1c(Nc2cc(C(F)(F)F)cn(CCO)c2=O)nc2ncc(Oc3cnn4ccc(N5CCOCC5)cc34)c(Cl)c21` [Example I-183, 3-((7-chloro-1-methyl-6-((5-morpholinopyrazolo[1,5-a]pyridin-3-yl)oxy)-1H-imidazo[4,5-b]pyridin-2-yl)amino)-1-(2-hydroxyethyl)-5-(trifluoromethyl)pyridin-2(1H)-one]: the Kd is < 10 nM.

With `CNc1nccn2ncc(Oc3cnc4nc(Nc5ccc(CN6CCC(F)(F)C6)c(C(F)(F)F)c5)n(C)c4c3Cl)c12` [Example I-184], the Kd fell in the range of 50 to 1000 nM.

In turn, `Cn1c(Nc2cc(C(C)(C)C)n(C3CC4(COC4)C3)n2)nc2ncc(Oc3cnn4ccncc34)c(C#N)c21` [Example I-187, 2-((5-(tert-butyl)-1-(2-oxaspiro[3.3]heptan-6-yl)-1H-pyrazol-3-yl)amino)-1-methyl-6-(pyrazolo[1,5-a]pyrazin-3-yloxy)-1H-imidazo[4,5-b]pyridine-7-carbonitrile] showed a Kd of 10 to 50 nM.

Consider `CCc1cc(Nc2nc3ncc(Oc4cnn5ccncc45)c(Cl)c3n2C)cc(C(=O)N2CCC2)n1` [Example I-188, Azetidin-1-yl(4-((7-chloro-1-methyl-6-(pyrazolo[1,5-a]pyrazin-3-yloxy)-1H-imidazo[4,5-b]pyridin-2-yl)amino)-6-ethylpyridin-2-yl)methanone], for which the Kd was < 10 nM.

`CNc1nccn2ncc(Oc3cnc4nc(Nc5ccc(CN6CC(F)C6)c(C(F)(F)F)c5)n(C)c4c3Cl)c12` [Example I-189, 7-chloro-N-(4-((3-fluoroazetidin-1-yl)methyl)-3-(trifluoromethyl)phenyl)-1-methyl-6-((4-(methylamino)pyrazolo[1,5-a]pyrazin-3-yl)oxy)-1H-imidazo[4,5-b]pyridin-2-amine] had a Kd of 10 to 50 nM.

Turning to `CNc1nccn2ncc(Oc3cnc4nc(Nc5ccc(CN6CC(OC)C6)c(C(F)(F)F)c5)n(C)c4c3Cl)c12` [Example I-190, 7-chloro-N-(4-((3-methoxyazetidin-1-yl)methyl)-3-(trifluoromethyl)phenyl)-1-methyl-6-((4-(methylamino)pyrazolo[1,5-a]pyrazin-3-yl)oxy)-1H-imidazo[4,5-b]pyridin-2-amine], the Kd is 10 to 50 nM.

The molecule `CNc1nccn2ncc(Oc3cnc4nc(Nc5ccc(CN6CC[C@H](OC)C6)c(C(F)(F)F)c5)n(C)c4c3Cl)c12` [Example I-191, (S)-7-chloro-N-(4-((3-methoxypyrrolidin-1-yl)methyl)-3-(trifluoromethyl)phenyl)-1-methyl-6-((4-(methylamino)pyrazolo[1,5-a]pyrazin-3-yl)oxy)-1H-imidazo[4,5-b]pyridin-2-amine] returned a Kd of 10 to 50 nM.

As for `CNc1nccn2ncc(Oc3cnc4nc(Nc5ccc(CN6CC[C@@H](OC)C6)c(C(F)(F)F)c5)n(C)c4c3Cl)c12` [Example I-192], the Kd lay in the range of 10 to 50 nM.

The record behind these values is patent publication US12043632B2, “6-heteroaryloxy benzimidazoles and azabenzimidazoles as JAK2 inhibitors” (Ajax Therapeutics, Inc., priority 2020, dated 2024).
